Experiment: xn = mol fraction of the nth substance listed
Settings: 101 kPa, Liquid; for viscosity: Concentric cylinders viscometry; for mass density: Vibrating tube method

CCCCOC(=O)C(C)O (stereo not given) [butyl 2-hydroxypropanoate] + OCCCO
Settings | mass density [kg/m3] | viscosity [mPa·s]
288.15 K, x1 = 0.0999 | 1046.52 | 55.22
288.15 K, x1 = 0.2 | 1037.84 | 41.92
288.15 K, x1 = 0.3001 | 1029.39 | 31.27
288.15 K, x1 = 0.4 | 1022.24 | 22.91
288.15 K, x1 = 0.4999 | 1015.45 | 16.95
288.15 K, x1 = 0.5999 | 1009.2 | 12.66
288.15 K, x1 = 0.6996 | 1003.51 | 9.596
288.15 K, x1 = 0.8001 | 997.914 | 7.373
288.15 K, x1 = 0.9 | 992.76 | 5.629
288.15 K, x1 = 1 | 987.269 | 4.628
293.15 K, x1 = 0.0999 | 1043.16 | 42.99
293.15 K, x1 = 0.2 | 1034.24 | 32.73
293.15 K, x1 = 0.3001 | 1025.58 | 24.47
293.15 K, x1 = 0.4 | 1018.23 | 18.13
293.15 K, x1 = 0.4999 | 1011.25 | 13.54
293.15 K, x1 = 0.5999 | 1004.84 | 10.21
293.15 K, x1 = 0.6996 | 999.008 | 7.805
293.15 K, x1 = 0.8001 | 993.26 | 6.064
293.15 K, x1 = 0.9 | 987.976 | 4.686
293.15 K, x1 = 1 | 982.366 | 3.88
298.15 K, x1 = 0.0999 | 1039.79 | 33.94
298.15 K, x1 = 0.2 | 1030.62 | 25.91
298.15 K, x1 = 0.3001 | 1021.73 | 19.59
298.15 K, x1 = 0.4 | 1014.19 | 14.51
298.15 K, x1 = 0.4999 | 1007.03 | 10.96
298.15 K, x1 = 0.5999 | 1000.47 | 8.355
298.15 K, x1 = 0.6996 | 994.488 | 6.444
298.15 K, x1 = 0.8001 | 988.587 | 5.056
298.15 K, x1 = 0.9 | 983.173 | 3.957
298.15 K, x1 = 1 | 977.448 | 3.307
303.15 K, x1 = 0.0999 | 1036.41 | 27.14
303.15 K, x1 = 0.2 | 1026.99 | 20.8
303.15 K, x1 = 0.3001 | 1017.87 | 15.82
303.15 K, x1 = 0.4 | 1010.14 | 11.86
303.15 K, x1 = 0.4999 | 1002.79 | 8.984
303.15 K, x1 = 0.5999 | 996.07 | 6.919
303.15 K, x1 = 0.6996 | 989.946 | 5.405
303.15 K, x1 = 0.8001 | 983.896 | 4.286
303.15 K, x1 = 0.9 | 978.359 | 3.386
303.15 K, x1 = 1 | 972.515 | 2.86
308.15 K, x1 = 0.0999 | 1033 | 21.95
308.15 K, x1 = 0.2 | 1023.33 | 16.89
308.15 K, x1 = 0.3001 | 1013.99 | 12.93
308.15 K, x1 = 0.4 | 1006.06 | 9.744
308.15 K, x1 = 0.4999 | 998.523 | 7.491
308.15 K, x1 = 0.5999 | 991.652 | 5.805
308.15 K, x1 = 0.6996 | 985.382 | 4.581
308.15 K, x1 = 0.8001 | 979.183 | 3.667
308.15 K, x1 = 0.9 | 973.522 | 2.929
308.15 K, x1 = 1 | 967.567 | 2.481
313.15 K, x1 = 0.0999 | 1029.57 | 17.95
313.15 K, x1 = 0.2 | 1019.65 | 13.87
313.15 K, x1 = 0.3001 | 1010.09 | 10.69
313.15 K, x1 = 0.4 | 1001.96 | 8.124
313.15 K, x1 = 0.4999 | 994.239 | 6.299
313.15 K, x1 = 0.5999 | 987.21 | 4.926
313.15 K, x1 = 0.6996 | 980.794 | 3.922
313.15 K, x1 = 0.8001 | 974.453 | 3.171
313.15 K, x1 = 0.9 | 968.668 | 2.558
313.15 K, x1 = 1 | 962.603 | 2.181
318.15 K, x1 = 0.0999 | 1026.13 | 14.83
318.15 K, x1 = 0.2 | 1015.95 | 11.5
318.15 K, x1 = 0.3001 | 1006.16 | 8.916
318.15 K, x1 = 0.4 | 997.828 | 6.84
318.15 K, x1 = 0.4999 | 989.925 | 5.351
318.15 K, x1 = 0.5999 | 982.743 | 4.221
318.15 K, x1 = 0.6996 | 976.184 | 3.391
318.15 K, x1 = 0.8001 | 969.697 | 2.768
318.15 K, x1 = 0.9 | 963.791 | 2.253
318.15 K, x1 = 1 | 957.624 | 1.935
323.15 K, x1 = 0.0999 | 1022.65 | 12.36
323.15 K, x1 = 0.2 | 1012.21 | 9.627
323.15 K, x1 = 0.3001 | 1002.2 | 7.519
323.15 K, x1 = 0.4 | 993.673 | 5.813
323.15 K, x1 = 0.4999 | 985.589 | 4.586
323.15 K, x1 = 0.5999 | 978.248 | 3.65
323.15 K, x1 = 0.6996 | 971.548 | 2.958
323.15 K, x1 = 0.8001 | 964.924 | 2.435
323.15 K, x1 = 0.9 | 958.899 | 2.002
323.15 K, x1 = 1 | 952.631 | 1.728

From the NIST ThermoML archive (doi:10.1016/j.tca.2013.03.025)
